Reference: patent publication US7648999B2, “Activator for peroxisome proliferator-activated receptor δ” (Nippon Chemiphar Co., Ltd., priority 2007, dated 2010)

Experiments:
db/db mice = experiment: HDL cholesterol elevating effect in db/db mice; type: in vivo; settings: for Ratio of increasing HDL cholesterol (% to control): 10 mg/kg/b.i.d. orally for one week, serum 16 hours after final administration; for HDL cholesterol elevating effect (in words): oral, one week twice daily
Protocol: HDL cholesterol elevating effect was measured by using db/db mice, which are hereditary obesity mice. The db/db mice (10 weeks old) were divided into groups based on serum HDL cholesterol levels. […] Mice of the control group (to which no agent was administered) were orally given 1% methyl cellulose solution. After 16 hours from the final administration, blood sample was collected, and serum HDL cholesterol level was measured. HDL cholesterol was separated by electrophoresis on agarose gels (Chol/Trig Combo, Helena Laboratories). […] HDL cholesterol levels were calculated from total cholesterol levels and HDL cholesterol/total cholesterol ratios.
Each value represents as % of the control group.

PPARα (GAL4-hPPARα LBD) = target: T1, PPARα (GAL4-hPPARα LBD) (Homo sapiens, UniProt Q07869); experiment: PPARα transactivation activity (GAL4 chimera luciferase reporter in CV-1 cells); type: cell-based
T1 construct: Receptor expression plasmid (GAL4-hPPARα, LBD GAL4-hPPARγ LBD, GAL4-hPPARδ LBD); expressed in transfected cells; host or cells: CV-1 cells
T1 sequence (Q07869 239-466 limits assumed): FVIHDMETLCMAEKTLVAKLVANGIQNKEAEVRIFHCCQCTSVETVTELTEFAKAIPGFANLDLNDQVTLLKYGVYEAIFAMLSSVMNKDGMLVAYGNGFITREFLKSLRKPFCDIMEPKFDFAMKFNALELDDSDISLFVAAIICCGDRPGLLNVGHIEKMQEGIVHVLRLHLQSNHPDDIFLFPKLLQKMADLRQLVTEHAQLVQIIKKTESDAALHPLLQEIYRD

PPARγ (GAL4-hPPARγ LBD) = target: T2, PPARγ (GAL4-hPPARγ LBD) (Homo sapiens, UniProt P37231); experiment: PPARγ transactivation activity (GAL4 chimera luciferase reporter in CV-1 cells); type: cell-based
T2 construct: Receptor expression plasmid (GAL4-hPPARα, LBD GAL4-hPPARγ LBD, GAL4-hPPARδ LBD); expressed in transfected cells; host or cells: CV-1 cells
T2 sequence (P37231 238-503 limits assumed): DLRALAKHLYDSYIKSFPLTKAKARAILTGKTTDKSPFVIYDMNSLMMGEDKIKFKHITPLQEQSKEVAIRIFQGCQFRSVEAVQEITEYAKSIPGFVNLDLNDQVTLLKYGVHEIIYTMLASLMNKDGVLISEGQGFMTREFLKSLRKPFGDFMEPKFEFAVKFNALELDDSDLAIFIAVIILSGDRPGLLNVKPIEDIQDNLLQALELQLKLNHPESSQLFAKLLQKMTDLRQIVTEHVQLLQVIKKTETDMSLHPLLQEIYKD

PPARδ (GAL4-hPPARδ LBD) = target: T3, PPARδ (GAL4-hPPARδ LBD) (Homo sapiens, UniProt Q03181); experiment: PPARδ transactivation activity (GAL4 chimera luciferase reporter in CV-1 cells); type: cell-based
T3 construct: A chimeric receptor expression plasmid (GAL4-hPPARδ LBD), a reporter plasmid (UASx4-TK-LUC); expressed in transfected cells; host or cells: CV-1 cells
T3 sequence (Q03181 211-439 limits assumed): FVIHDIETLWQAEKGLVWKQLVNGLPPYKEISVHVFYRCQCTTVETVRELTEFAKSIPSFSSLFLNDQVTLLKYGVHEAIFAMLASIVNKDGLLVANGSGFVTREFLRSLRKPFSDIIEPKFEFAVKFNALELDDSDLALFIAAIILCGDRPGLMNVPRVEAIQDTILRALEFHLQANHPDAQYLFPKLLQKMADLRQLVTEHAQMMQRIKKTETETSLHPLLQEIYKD
Protocol: A chimeric receptor expression plasmid (GAL4-hPPARδ LBD), a reporter plasmid (UASx4-TK-LUC) and β-galactosidase (β-GAL) are transfected into CV-1 cells by utilizing a lipofection reagent DMRIE-C (Life Technologies).
(1) Measurement of PPARα, γ, δ Transactivation Activity
CV-1 cells were obtained from Tohoku University Aging Medical Laboratory, Medical Cell Collection Center. All test compounds were dissolved in dimethylsulfoxide (DMSO). Final concentration of DMSO was 0.1%.
CV-1 cells were seeded in 24 well culture plates at 2×10^5 cells per well, and cultured for 24 hours OPTI-MEM I Reduced Serum Medium (Life Technologies, 500 μL/well) containing 4%-fetal bovine serum (FBS). After washing with OPTI-MEM, transfection mixture (250 μL/well) containing 0.03 μg of GAL4-hPPARδ LBD, 0.25 μg of UASx-4-TK-LUC, 0.35 μg of βGAL, and 2 μL of lipofection reagent, DMRIE-C (Life Technologies) were added. The cells were incubated for 5 hours at 37° C.
The cells were washed and incubated for 40 hours in the presence of the test compound (final concentration was 10^−7M or 10^−6M)
The culture medium was removed and the cells were washed with PBS twice. A solubilizing buffer (100 μL/well) containing 25 mM Tris-PO4 (pH 7.8), 15% v/v glycerol, 2% CHAPS, 1% Lecithin, 1% BSA, 4 mM EGTA (pH 8.0), 8 mM MgCl2, 1 mM DTT was added. After the incubation for 10 minutes at room temperature, a portion (20 μL) of the solution was transferred into a 96-well plate. Subsequently, 100 μL of luciferase substrate solution (Piccagene: available from Nippon Gene Co., Ltd.) was added, and a luminous intensity per one second (luciferase activity) was measured using a microluminoreader (Type MLR-100, Corona Electrics Co., Ltd.). Each luciferase activity was corrected by the transfection efficiency which was calculated from β-galactosidase activity. The assay method of β-galactosidase activity was as follows: A portion (50 μL) of the solubilized sample was transferred into another 96-well plate; 100 μL of ONPG (2-nitrophenyl-β-galactopyranoside) solution was added and incubated for 5 minutes at room temperature. 50 μL of a reaction stopping solution (1M sodium carbonate solution) was added. Then the absorbance at 414 nm was measured.

[1] = compound at 10^−7 M (value without parentheses)
[2] = compound at 10^−6 M (value in parentheses)

Row | Relative activity for PPAR transactivation, α (PPARα (GAL4-hPPARα LBD); [1]) | Relative activity for PPAR transactivation, γ (PPARγ (GAL4-hPPARγ LBD); [1]) | Relative activity for PPAR transactivation, δ (PPARδ (GAL4-hPPARδ LBD); [1]) | Relative activity for PPAR transactivation, α (PPARα (GAL4-hPPARα LBD); [2]) | Relative activity for PPAR transactivation, γ (PPARγ (GAL4-hPPARγ LBD); [2]) | Relative activity for PPAR transactivation, δ (PPARδ (GAL4-hPPARδ LBD); [2]) | Compound | other results
1 | – | – | – | – | – | – | Cc1cc(C(=O)CCc2sc(-c3ccc(C(F)(F)F)cc3)nc2C(C)C)ccc1OC(C)(C)C(=O)O [Example 4, 2-[4-[3-[2-(4-Trifluoromethyl)phenyl-4-isopropyl-5-thiazolyl]propionyl]-2-methylphenoxy]-2-methylpropionic acid] | Ratio of increasing HDL cholesterol (% to control) (db/db mice): 176 % to control; HDL cholesterol elevating effect (in words) (db/db mice): excellent effect of increasing HDL cholesterol; Relative activity for PPAR transactivation, α (PPARα (GAL4-hPPARα LBD); compound at 10^−7 M, CV-1 cells, 40 hours, positive control 10^−4 M WY-14643 = 100%): 11 % of control; Relative activity for PPAR transactivation, γ (PPARγ (GAL4-hPPARγ LBD); compound at 10^−7 M, CV-1 cells, 40 hours, positive control 10^−5 M Rosiglitazone = 100%): 12 % of control; Relative activity for PPAR transactivation, δ (PPARδ (GAL4-hPPARδ LBD); compound at 10^−7 M, CV-1 cells, 40 hours, positive control 10^−4 M L-165041 = 100%): 86 % of control
2 | 0 % of control | 1 % of control | 67 % of control | – | – | – | Cc1cc(C=CCc2sc(-c3ccc(C(F)(F)F)cc3)nc2C(C)C)ccc1OCC(=O)O [Example 10, [4-[3-[4-Isopropyl-2-(4-trifluoromethyl)phenyl-5-thiazolyl]-1-propenyl]-2-methylphenoxy]acetic acid] | Ratio of increasing HDL cholesterol (% to control) (db/db mice): 134 % to control; HDL cholesterol elevating effect (in words) (db/db mice): excellent effect of increasing HDL cholesterol
3 | 5 % of control | 3 % of control | 66 % of control | – | – | – | CC(C)c1nc(-c2ccc(C(F)(F)F)cc2)sc1CCC(=O)c1ccc(OC(C)(C)C(=O)O)c(Cl)c1 [Example 34, [4-[3-[2-(4-Trifluoromethyl)phenyl-4-isopropyl-5-thiazolyl]propionyl]-2-chlorophenoxy]-2-methylpropionic acid] | –
4 | – | – | – | (3) % of control | (9) % of control | (69) % of control | Cc1cc(C(=O)CCc2nc(-c3ccc(C(F)(F)F)cc3)sc2C(C)C)ccc1OC(C)(C)C(=O)O [Example 38, 2-[4-[3-[5-Isopropyl-2-(4-trifluoromethyl)phenyl-4-thiazolyl]propionyl]-2-methylphenoxy]-2-methylpropionic acid] | –
5 | 3 % of control | 5 % of control | 42 % of control | – | – | – | Cc1cc(C(=O)CCc2sc(-c3ccc(C(F)(F)F)cc3)nc2C(C)C)ccc1OC(C)C(=O)O (stereo not shown) [Example 43, 2-[4-[3-[4-Isopropyl-2-(4-trifluoromethyl)phenyl-5-thiazolyl]propionyl]-2-methylphenoxy]propionic acid] | –
6 | 90 % of control | 20 % of control | 49 % of control | – | – | – | CCCCCCc1nc(-c2ccc(C(F)(F)F)cc2)sc1CC=Cc1ccc(OC(C)(C)C(=O)O)c(C)c1 [Example 45, 2-[4-[3-[4-Hexyl-2-(4-trifluoromethyl)phenyl-5-thiazolyl]-1-propenyl]-2-methylphenoxy]-2-methylpropionic acid] | –
7 | 0 % of control | 0 % of control | 57 % of control | – | – | – | CCc1nc(-c2ccc(C(F)(F)F)cc2)sc1CCC(=O)c1ccc(OCC(=O)O)c(C)c1 [Example 47, [4-[3-[4-Ethyl-2-(4-trifluoromethyl)phenyl-5-thiazolyl]propionyl]-2-methylphenoxy]acetic acid] | –
8 | – | – | – | (84) % of control | (13) % of control | (51) % of control | CCc1nc(-c2ccc(C(F)(F)F)cc2)sc1CCC(=O)c1ccc(OC(C)(C)C(=O)O)c(C)c1 [Example 48, 2-[4-[3-[4-Ethyl-2-(4-trifluoromethyl)phenyl-5-thiazolyl]propionyl]-2-methylphenoxy]-2-methylpropionic acid] | –

Row | Compound | Relative activity for PPAR transactivation, α (PPARα (GAL4-hPPARα LBD); [1]) | Relative activity for PPAR transactivation, γ (PPARγ (GAL4-hPPARγ LBD); [1]) | Relative activity for PPAR transactivation, δ (PPARδ (GAL4-hPPARδ LBD); [1]) | Relative activity for PPAR transactivation, α (PPARα (GAL4-hPPARα LBD); [2]) | Relative activity for PPAR transactivation, γ (PPARγ (GAL4-hPPARγ LBD); [2]) | Relative activity for PPAR transactivation, δ (PPARδ (GAL4-hPPARδ LBD); [2]) | other results
9 | CCCCCCc1nc(-c2ccc(C(F)(F)F)cc2)sc1CCC(=O)c1ccc(C)c(OC(C)(C)C(=O)O)c1 [Example 46, 2-[5-[3-[4-Hexyl-2-(4-trifluoromethyl)phenyl-5-thiazolyl]propionyl]-2-methylphenoxy]-2-methylpropionic acid] | – | – | – | (78) % of control | (69) % of control | (46) % of control | –
